The values that follow are results of earlier work, collected in paper PMC6270976, “Pharmacokinetic Study in Mice of Galphimine-A, an Anxiolytic Compound from Galphimia glauca” (Molecules, 2014).

Entries after “also recorded” stand apart in the source; their conditions may differ. Read-outs that look alike come from different tables or passages of the source.

For data set [1] the following is noted: cited from earlier work.
Details of data set [2]: method as in PMID 14758039. To be noted: cited from earlier work.
On the set-up of data set [3]: method as in PMID 18452416. As to conditions: humans; cited from earlier work.

As to `COC(=O)[C@@]12CC[C@@]3(C)[C@@H]4C=CC(=O)OC[C@]4([C@@H](C)O)C[C@@H](O)[C@@H]3[C@@]1(C)CC[C@@]1(C)CC=C(C)C[C@]12O` [G–B, galphimine-B], the Anxiolytic activity result in data set [1] (among the galphimines) is given as “most active; also recorded: highest anxiolytic activity”.

On to `COC(=O)[C@@]12CC[C@@]3(C)[C@@H]4C=CC(=O)OC[C@]4([C@@H](C)O)[C@@H](OC(C)=O)[C@@H](O)[C@@H]3[C@@]1(C)CC[C@@]1(C)CC=C(C)C[C@]12O` [G–E, galphimine-E], for which, in data set [1], the Anxiolytic activity result is “inactive”.

For `CC1(C)[C@@H](O)CC[C@]2(C)[C@H]3C(=O)C=C4[C@@H]5C[C@@](C)(C(=O)O)CC[C@]5(C)CC[C@@]4(C)[C@]3(C)CC[C@@H]12` [glycyrrhetinic acid], the “k10 (elimination rate constant)” value in data set [2] (mice, 100 mg/kg orally, one-compartment model) was 0.0006 min⁻¹. The “AUC0→∞” value in data set [2] (oral administration in mice) was 2,454 µg·min·mL^−1. Also, the k10 in data set [3] is 0.0012 min⁻¹.
